The results in this text go back to ChEMBL document CHEMBL1201862, “PubChem BioAssay data set” (2004).

Test systems include A498; BT-549; HCC 2998; HL-60; Hs-578T; IGROV-1; MDA-MB-231; MDA-MB-435; Malme-3M; NCI-H226; NCI-H460; OVCAR-4; OVCAR-8; PC-3; RXF 393; SF-268; SK-MEL-2; SK-MEL-5; SNB-19; SW-620.
Common to all, as to test: NCI-60 cell line screen, 48 h

Structures are written as SMILES.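 Following 48 hours of exposure in 96-well plates, responses at five concentrations were used to interpolate endpoints linearly. GI50 is the concentration that inhibits growth by half.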 Calls of active or inactive are those of the source. Rule as the data show it: active = GI50 up to about 1.1 µM and inactive = higher. Square brackets hold non-standard residues; d marks the D form. Peptide text beside a SMILES is read from it. * marks the point of attachment. ξ: configuration not given here. NMeY = CN[C@@H](Cc1ccc(O)cc1)C(=O)O; Cbz = O=C(OCc1ccccc1)*; ξA = CC(N)C(=O)O

For `O=C1c2cc3c(cc2CC1Br)CCC3` (centres undefined), the GI50 was 18.1 µM (inactive) in the experiment on A498; 1.96 µM (inactive) with BT-549; 5.64 µM (inactive) in the experiment on HCC 2998; 2.9 µM (inactive) with HL-60; 4.06 µM (inactive) in the experiment with Hs-578T; 2.86 µM (inactive) in the experiment with IGROV-1. Also, the GI50 is 4.47 µM (inactive) in the experiment with MDA-MB-231; 1.99 µM (inactive) in the experiment with MDA-MB-435; 1.01 µM (active) in the experiment on Malme-3M; 3.36 µM (inactive) in the experiment on NCI-H226; 12.1 µM (inactive) with NCI-H460; 1.85 µM (inactive) in the experiment with OVCAR-4. For the same compound, the GI50 is 1.98 µM (inactive) in the experiment on OVCAR-8; 3.28 µM (inactive) with PC-3; 1.83 µM (inactive) in the experiment on RXF 393; 4.41 µM (inactive) in the experiment on SF-268; 1.98 µM (inactive) with SK-MEL-2; 1.18 µM (inactive) with SK-MEL-5. Further, the GI50 in the experiment on SNB-19 was 12.4 µM (inactive); in the experiment on SW-620 it was 1.42 µM (inactive).
On to `C#CC[C@@H]1C(=O)N(Cc2ccc(OC)cc2)[C@@H](C(C)C)C(=O)N1Cc1ccc(OC)cc1`, for which the GI50 was 36 µM (inactive) in the experiment on A498; 29.4 µM (inactive) in the experiment on BT-549; 47.1 µM (inactive) with HCC 2998; 3.66 µM (inactive) in the experiment on HL-60; > 100 µM (inactive) in the experiment on Hs-578T; > 100 µM (inactive) in the experiment with IGROV-1. Also, the GI50 in the experiment on MDA-MB-231 was 83.2 µM (inactive); with MDA-MB-435, 36.1 µM (inactive); with Malme-3M, 55.2 µM (inactive); in the experiment with NCI-H226 it was 35.2 µM (inactive); in the experiment on NCI-H460 it was 30.7 µM (inactive); in the experiment on OVCAR-4 it was 74 µM (inactive). Moreover, the GI50 was 46.1 µM (inactive) in the experiment on OVCAR-8; 24 µM (inactive) in the experiment with PC-3; 2.79 µM (inactive) in the experiment with RXF 393; 82.2 µM (inactive) in the experiment on SF-268; 19.9 µM (inactive) with SK-MEL-2; 15.6 µM (inactive) with SK-MEL-5. In addition, the figures for the GI50 in the experiment on SNB-19 and with SW-620 were 64.4 µM (inactive) and 40.5 µM (inactive), respectively.
With `N=C(N)SCc1ccc(Cl)c2ccccc12.O=[N+]([O-])c1c(O)c(Cl)cc(Cl)c1Cl`, the GI50 in the experiment on A498 was 9.2 µM (inactive); in the experiment with BT-549, 14.8 µM (inactive); in the experiment with HCC 2998, 2.33 µM (inactive); with HL-60 it was 4.38 µM (inactive); with Hs-578T it was 17.9 µM (inactive); with IGROV-1, 13 µM (inactive). Moreover, the GI50 in the experiment with MDA-MB-231 was 8.22 µM (inactive); in the experiment with MDA-MB-435, 8.38 µM (inactive); in the experiment on Malme-3M, 9.1 µM (inactive); with NCI-H226 it was 12 µM (inactive); in the experiment on NCI-H460, 8.32 µM (inactive); with OVCAR-4, 4.65 µM (inactive). The GI50 with OVCAR-8 is 17.7 µM (inactive); in the experiment with PC-3, 11.9 µM (inactive); with RXF 393, 7.23 µM (inactive); in the experiment on SF-268, 15.7 µM (inactive); in the experiment on SK-MEL-2 it was 8.95 µM (inactive); in the experiment on SK-MEL-5, 12.6 µM (inactive). For the same compound, the GI50 in the experiment with SNB-19 is 14.4 µM (inactive); in the experiment on SW-620, 12.2 µM (inactive).
`Cn1c(Sc2ccc(-c3cccnc3)n2C)ccc1-c1cccnc1`: the GI50 in the experiment on A498 is 20.9 µM (inactive); with BT-549 it was 20.4 µM (inactive); in the experiment with HCC 2998, 20.2 µM (inactive); with HL-60 it was 2.39 µM (inactive); in the experiment on Hs-578T, 3.7 µM (inactive); with IGROV-1, 15 µM (inactive). The GI50 in the experiment on MDA-MB-231 was 18.2 µM (inactive); in the experiment with MDA-MB-435 it was 13.4 µM (inactive); in the experiment on Malme-3M it was 11.1 µM (inactive); in the experiment with NCI-H226, 24.5 µM (inactive); in the experiment with NCI-H460 it was 15.2 µM (inactive); in the experiment with OVCAR-4 it was 14.6 µM (inactive). Besides, the GI50 in the experiment on OVCAR-8 was 18.1 µM (inactive); with PC-3 it was 15.5 µM (inactive); with RXF 393, 18.5 µM (inactive); in the experiment on SF-268, 10.7 µM (inactive); with SK-MEL-2, 14.2 µM (inactive); in the experiment with SK-MEL-5, 16.4 µM (inactive). Moreover, the GI50 with SNB-19 was 19.6 µM (inactive); in the experiment on SW-620 it was 6.93 µM (inactive).
In the case of `CN(C)Cc1cc(/N=N/c2ccccc2)cc(CN(C)C)c1O`, the GI50 is 97.3 µM (inactive) with A498; > 100 µM (inactive) with BT-549; 79.1 µM (inactive) with HCC 2998; 21.9 µM (inactive) in the experiment with HL-60; > 100 µM (inactive) with Hs-578T; 85.7 µM (inactive) with IGROV-1. Also, the GI50 with MDA-MB-231 is 71 µM (inactive); with MDA-MB-435 it was > 100 µM (inactive); in the experiment with Malme-3M, > 100 µM (inactive); with NCI-H226 it was > 100 µM (inactive); with NCI-H460, 47.1 µM (inactive); in the experiment on OVCAR-4, 35.8 µM (inactive). Moreover, the GI50 with OVCAR-8 was 57.1 µM (inactive); with PC-3 it was > 100 µM (inactive); with RXF 393 it was 44.7 µM (inactive); with SF-268, 73.5 µM (inactive); with SK-MEL-2 it was 64.4 µM (inactive); in the experiment on SK-MEL-5 it was > 100 µM (inactive). Further, the GI50 with SNB-19 and in the experiment on SW-620 was > 100 µM (inactive) in each case.
For `COc1ccc(C[C@@H](C(=O)N[C@@H](C)C(N)=O)N(C)C(=O)[C@@H]2CCCN2C(=O)[C@H](CC(C)C)NC(=O)C(C)NC(=O)OCc2ccccc2)cc1` (some centres undefined) (Cbz-[ξA]LP[NMeY](Me)A-NH2), the GI50 in the experiment on A498 is > 100 µM (inactive); in the experiment with BT-549, > 100 µM (inactive); in the experiment with HCC 2998, > 100 µM (inactive); in the experiment on HL-60 it was > 100 µM (inactive); in the experiment with Hs-578T, 4.94 µM (inactive); with IGROV-1, 51.8 µM (inactive). For the same compound, the GI50 in the experiment on MDA-MB-231, in the experiment on MDA-MB-435, in the experiment with Malme-3M, with NCI-H226, with NCI-H460 and with OVCAR-4 was > 100 µM (inactive) throughout. Moreover, the GI50 in the experiment with OVCAR-8 is > 100 µM (inactive); in the experiment with PC-3, 61.7 µM (inactive); in the experiment with RXF 393, > 100 µM (inactive); with SF-268, > 100 µM (inactive); in the experiment on SK-MEL-2 it was > 100 µM (inactive); in the experiment with SK-MEL-5, 76.2 µM (inactive). Besides, the GI50 with SNB-19 and with SW-620 was > 100 µM (inactive) in each case.
Consider `COc1ccc(/C(CCl)=C(\Nc2ccccc2)c2ccc(OC)c(OC)c2)cc1OC`, for which the GI50 with A498 is > 100 µM (inactive); in the experiment on BT-549, > 100 µM (inactive); with HCC 2998, > 100 µM (inactive); in the experiment with HL-60, 27.2 µM (inactive); in the experiment on Hs-578T, > 100 µM (inactive); in the experiment with MDA-MB-231, 93.1 µM (inactive). For the same compound, the GI50 with MDA-MB-435 was > 100 µM (inactive); with Malme-3M, > 100 µM (inactive); in the experiment with NCI-H226, 68.9 µM (inactive); with NCI-H460, 82.6 µM (inactive); in the experiment on OVCAR-4, 75.5 µM (inactive); with OVCAR-8 it was > 100 µM (inactive). For the same compound, the GI50 in the experiment with PC-3 was 65 µM (inactive); in the experiment with RXF 393, 36.1 µM (inactive); with SF-268 it was > 100 µM (inactive); in the experiment on SK-MEL-2 it was > 100 µM (inactive); in the experiment on SK-MEL-5 it was 71.9 µM (inactive); in the experiment with SNB-19 it was > 100 µM (inactive). For the same compound, the GI50 in the experiment with SW-620 is > 100 µM (inactive).
